Measured values reported in ChEMBL document CHEMBL1833829, “Development of 2-substituted-N-(naphth-1-ylmethyl) and N-benzhydrylpyrimidin-4-amines as dual cholinesterase and Aβ-aggregation inhibitors: Synthesis and biological evaluation” (Bioorg Med Chem Lett, 2011).

Legend:
Cholinesterase [1] = target: T1, Cholinesterase (Equus caballus, UniProt P81908)
Description: (§1) Inhibition of equine BuChE by Ellman's method

Cholinesterase [2] = target: T1, Cholinesterase; remark: listed apart in the source
Description: as §1

Acetylcholinesterase = Acetylcholinesterase (Homo sapiens, UniProt P22303)
Sequence of Acetylcholinesterase (P22303 whole entry): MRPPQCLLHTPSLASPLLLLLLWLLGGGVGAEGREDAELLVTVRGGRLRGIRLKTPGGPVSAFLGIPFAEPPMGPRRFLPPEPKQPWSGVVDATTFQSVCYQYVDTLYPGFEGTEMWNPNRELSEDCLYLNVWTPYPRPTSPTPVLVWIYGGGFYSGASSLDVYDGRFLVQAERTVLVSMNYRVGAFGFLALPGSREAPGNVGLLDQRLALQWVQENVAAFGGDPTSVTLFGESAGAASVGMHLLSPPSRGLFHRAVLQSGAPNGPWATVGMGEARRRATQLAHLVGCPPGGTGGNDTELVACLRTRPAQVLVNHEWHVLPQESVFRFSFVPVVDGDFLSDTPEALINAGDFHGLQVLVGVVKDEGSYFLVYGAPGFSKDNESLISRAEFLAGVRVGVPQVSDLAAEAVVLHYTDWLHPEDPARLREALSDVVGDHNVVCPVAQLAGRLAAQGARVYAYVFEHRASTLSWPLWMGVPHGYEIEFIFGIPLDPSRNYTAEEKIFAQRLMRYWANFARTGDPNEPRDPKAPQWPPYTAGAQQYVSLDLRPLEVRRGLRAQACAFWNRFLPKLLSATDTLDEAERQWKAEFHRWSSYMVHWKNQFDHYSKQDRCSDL
Description: Inhibition of human AChE by Ellman's assay

T1 sequence (P81908 whole entry): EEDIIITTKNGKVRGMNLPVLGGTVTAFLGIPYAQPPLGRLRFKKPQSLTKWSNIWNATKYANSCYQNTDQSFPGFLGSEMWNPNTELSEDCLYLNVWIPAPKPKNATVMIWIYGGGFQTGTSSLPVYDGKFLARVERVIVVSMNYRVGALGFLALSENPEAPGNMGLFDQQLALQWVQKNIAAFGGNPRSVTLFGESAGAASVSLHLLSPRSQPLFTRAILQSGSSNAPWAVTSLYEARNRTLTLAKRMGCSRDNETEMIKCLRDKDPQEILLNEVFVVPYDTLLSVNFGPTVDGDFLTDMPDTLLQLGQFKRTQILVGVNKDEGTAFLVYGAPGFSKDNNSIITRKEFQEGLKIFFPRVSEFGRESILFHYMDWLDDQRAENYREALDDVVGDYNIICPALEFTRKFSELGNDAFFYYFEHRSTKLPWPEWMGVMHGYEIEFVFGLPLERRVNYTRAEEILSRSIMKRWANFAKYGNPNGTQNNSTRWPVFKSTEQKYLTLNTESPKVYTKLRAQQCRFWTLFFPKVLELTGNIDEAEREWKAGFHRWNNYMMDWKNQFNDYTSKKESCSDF

SMILES	IC50 (Cholinesterase [1])	IC50 (Cholinesterase [2])	IC50 (Acetylcholinesterase)
CC1CCN(c2nccc(NCc3cccc4ccccc34)n2)CC1	2.2 µM		
CC(C)N1CCN(c2nccc(NCc3cccc4ccccc34)n2)CC1		7.6 µM	15.8 µM
CC(C)C1CCN(c2nccc(NCc3cccc4ccccc34)n2)CC1		9.1 µM	16.7 µM
CCCN1CCN(c2nccc(NCc3cccc4ccccc34)n2)CC1		18.1 µM	19 µM
c1ccc2c(CNc3ccnc(N4CCN(C5CCCCC5)CC4)n3)cccc2c1		3.9 µM	8 µM
CC(=O)N1CCN(c2nccc(NCc3cccc4ccccc34)n2)CC1		32.9 µM	13.8 µM
CC(C)(C)OC(=O)N1CCN(c2nccc(NCc3cccc4ccccc34)n2)CC1		> 100 µM	50.8 µM
c1ccc2c(CNc3ccnc(N4CCNCC4)n3)cccc2c1		25.4 µM	17.5 µM
OCCN1CCN(c2nccc(NCc3cccc4ccccc34)n2)CC1		17.9 µM	9.8 µM
COCCN1CCN(c2nccc(NCc3cccc4ccccc34)n2)CC1		26.5 µM	11.7 µM
CN1CCN(c2nccc(NC(c3ccccc3)c3ccccc3)n2)CC1		23.8 µM	13.7 µM
CC1CCN(c2nccc(NC(c3ccccc3)c3ccccc3)n2)CC1		33.8 µM	32.2 µM
CC(C)N1CCN(c2nccc(NC(c3ccccc3)c3ccccc3)n2)CC1		9.7 µM	20.3 µM
CC(C)C1CCN(c2nccc(NC(c3ccccc3)c3ccccc3)n2)CC1		87 µM	42.5 µM
CCCN1CCN(c2nccc(NC(c3ccccc3)c3ccccc3)n2)CC1		17.5 µM	14.6 µM
c1ccc(C(Nc2ccnc(N3CCN(C4CCCCC4)CC3)n2)c2ccccc2)cc1		7.6 µM	10 µM
CC(=O)N1CCN(c2nccc(NC(c3ccccc3)c3ccccc3)n2)CC1		> 100 µM	29 µM
CC(C)(C)OC(=O)N1CCN(c2nccc(NC(c3ccccc3)c3ccccc3)n2)CC1		> 100 µM	> 100 µM
c1ccc(C(Nc2ccnc(N3CCNCC3)n2)c2ccccc2)cc1		> 100 µM	31.3 µM
OCCN1CCN(c2nccc(NC(c3ccccc3)c3ccccc3)n2)CC1		59.5 µM	21.6 µM
COCCN1CCN(c2nccc(NC(c3ccccc3)c3ccccc3)n2)CC1		28.4 µM	39.2 µM
